{"source": "paper PMC7732531", "about": "(Frontiers in Pharmacology, 2020)", "key": {"TSPO": {"system": "TSPO", "test": "In vitro TSPO binding, crude mitochondrial fraction from rat cerebellum", "conditions": "corrected by binding fraction of 10-volume brain homogenate", "source_text": "Unbound fractions of YL-IPA08 in rat plasma and brain homogenate were 0.6 and 0.49%, respectively. K p value of brain to plasma in rats was obtained under steady state to reach brain equilibrium in a transient dosing regimen. Then, K p,uu achieved 0.18. The unbound concentration of YL-IPA08 in brain can be estimated based on the plasma concentrations after rats receiving different dosages of YL-IPA08 via oral dosing (Table 4). For example, the unbound concentration of 6.5 pg/g in brain can be achieved after 1 mg/kg oral dosing. […] The unbound concentration in the incubates was obtained with 0.0108 nM (e.g., 4.9 pg/ml) by correcting the binding fraction of 10-volume brain homogenate (0.047)."}, "[1]": {"test": "Metabolic stability in rat liver microsomes (NADPH / UDPGA)", "conditions": "RLM"}, "in vitro [2]": {"test": "in vitro", "conditions": "human, microsomes, pH 7.4"}, "forced swim rats": {"system": "forced swim rats", "design": "method as in Zhang et al., 2017", "conditions": "ref Zhang et al., 2017, cited from earlier work"}, "in vitro [3]": {"test": "in vitro", "assay_type": "in vitro ADME", "conditions": "human, plasma", "method": "(§1) The fraction of unbound YL-IPA08 in plasma and liver microsomes of rat and human, and brain homogenates of rat were determined utilizing Rapid Equilibrium Dialysis method ([Waters et al., 2008]). Rat brain homogenate was harvested in 4-fold volume (w/v) of PBS (pH 7.4). YL-IPA08 were spiked into fresh plasma, rat brain homogenate, liver microsomes (0.2 mg/ml protein) at concentration of 1 µM, and then dialyzed against biomatrices on a shaker at 37°C for 4 h. To avoid the high non-specific binding of YL-IPA08, 0.01% Tween 80 was added in the incubation mixture. At the end of the incubation, protein was precipitated with acetonitrile (containing IS) and analyzed by LC-MS/MS. Phenacetin, quinidine, and warfarin were selected as positive control for the protein binding test.\nThe unbound fraction of YL-IPA08 in plasma or liver microsomes (ƒu,x) was calculated as shown in Eq. 2, and unbound fraction in the tissue homogenate (ƒu,b) was calculated according to Eq. 3. fu,x = Concbuffer chamber/Concplasma/liver microsomes chamber (2) fu,b = Concbuffer chamber/Concbrain homogenate chamber (3) The measured unbound fractions would be higher when a tissue is homogenized and diluted in buffer, the unbound fractions in an undiluted tissues (ƒu,brain) were calculated using Eq. 4 ([Kalvass and Maurer, 2002]). […]"}, "[4]": {"conditions": "human, microsomes, 0 h, 1 μM, pH 7.4"}, "[5]": {"test": "Metabolic stability in human liver microsomes (NADPH / UDPGA)", "conditions": "HLM"}, "[6]": {"test": "Pilot enzyme kinetic study in liver microsomes", "assay_type": "in vitro ADME", "source_text": "Since identification of F a, F g and F h is of importance to mechanistic understanding the systemic exposure, the related efficacy, and the potent drug-drug interactions, a number of in vivo and in vitro models have been developed to elucidate F a, F g and F h. As for in vitro methods, liver microsomes, S9 or hepatocytes are all well accepted for the generation of hepatic clearance and F h via in vitro-in vivo extrapolation (IVIVE) ([Houston and Carlile, 1998]). Furthermore, functionally mature enterocytes mainly express CYPs and UGTs. Among UGT isoforms, UGT1A8 and UGT1A10 show gut-specific expression patterns ([Kaminsky and Zhang, 2003]; [Court et al., 2012]). However, the achievement of intestinal clearance and (F g) from intestinal microsomes is limited by a lack of consensus on the appropriate scaling factors and a low availability of high-quality tissue. In the present study, in vitro metabolic stability of YL-IPA08 was performed in liver microsomes and intestinal microsomes of rat and human in the presence of NADPH and UDPGA to identify the metabolizing enzyme, organ, and species difference. […] UGT is not involved in the depletion of YL-IPA08. Although the CYP-mediated elimination in HIM and RIM were also observed, with great difference of enzyme expression level between liver and gut, the contribution of intestinal metabolism to the oral bioavailability is hard to define. […]"}, "[7]": {"test": "Prediction of therapeutic human plasma concentration from Kp,uu", "conditions": "C b,u,human set to 4.9 pg/ml, rat K p,uu, human unbound fraction", "source_text": "K p,uu in the current investigation is critical to link the PD of in vitro and in vivo results (see the result part). What is more important is that K p,uu is often preserved across species ([Di et al., 2013]). Human K p,uu can be estimated using that of rat ( Kp,uu,human≈Kp,uu,rat ). Thus, unbound drug concentration in human brain can be calculated by using the rat K p,uu, rat times the human unbound plasma concentration [ Cb,u,human≈Kp,uu,rat ×Cp,u,human ]. At the current stage, if C b,u,human (4.9 pg/ml) was set as the in vitro TPSO-binding activity concentration for the onset efficacy, therapeutic human plasma concentration would be around 27.2 ng/ml according to the calculation."}, "[8]": {"test": "Aqueous solubility / BCS class", "assay_type": "physicochemical"}, "in vitro [9]": {"test": "in vitro", "assay_type": "in vitro ADME", "conditions": "rat", "method": "as §1\nThe unbound fraction of YL-IPA08 in plasma or liver microsomes (ƒu,x) was calculated as shown in Eq. 2, and unbound fraction in the tissue homogenate (ƒu,b) was calculated according to Eq. 3. fu,x = Concbuffer chamber/Concplasma/liver microsomes chamber (2) fu,b = Concbuffer chamber/Concbrain homogenate chamber (3) The measured unbound fractions would be higher when a tissue is homogenized and diluted in buffer, the unbound fractions in an undiluted tissues (ƒu,brain) were calculated using Eq. 4 ([Kalvass and Maurer, 2002]). Undiluted fu,brain=1/D/((1/fu,brain homogenate)−1)+1/D (4) Where D represents the fold of dilution factor in brain homogenates."}, "[10]": {"test": "Blood/plasma partitional ratio, rat blood", "assay_type": "in vitro ADME", "conditions": "fresh pooled whole blood with heparin, rat whole blood, 37°C, read-out: blood/plasma partitioning (R b/P)", "protocol": "The blood/plasma partitional ratio (R b/p) in rat and human blood was measured in vitro using fresh pooled blood including heparin. Whole blood was preincubated at 37°C in a water bath, and spiked with YL-IPA08 at 1 µM. The blood samples were incubated at 37°C for 1 h. After incubation, aliquots of 25 µl spiked whole blood were removed, and the remaining blood was centrifuged at 2,000 × g for 10 min, after which 25 µl aliquots of plasma were removed. Obtained blood and plasma samples were spiked with same volume of blank plasma or blood, respectively, and then immediately precipitated by adding 4× volumes of acetonitrile containing IS to get the same matrix. The concentrations of YL-IPA08 in blood and plasma were determined by LC-MS/MS."}, "[11]": {"conditions": "male, rat, in vivo, po, 1 mg/kg; for Plasma concentration: SD", "method": "The surgical procedure for portal vein catheter insertion was performed according to reference ([Matsuda et al., 2012]). Male SD rats (250–280 g) were purchased from Beijing Vital River Laboratory Animal Technology Co., Ltd. (Beijing, China). Rats were anesthetized with 2% pentobarbital sodium (0.2–0.3 mg/100 g) intraperitoneally dosed. Cannulation into the jugular vein was performed by the method of Murakami reported ([Murakami et al., 2003]) with minor modification. Briefly, an incision of ∼0.5 cm near right clavicle was made and the jugular vein was exposed. Next, this vein was cannulated with ∼12.5 cm of silicone gel tubing (0.6 mm I.D. × 0.9 mm O.D., Skillsmodel Inc., Beijing, China). The other side of the tubing was passed through the back skin. 2.5 cm midline incision was made in the abdominal cavity close to ensiform process and the portal vein was detached. To prevent bleeding, the portal vein was ligated temporarily as the catheter was inserted. The silicone tubing (22 cm, 0.6 mm I.D. × 0.9 mm O.D., Skillsmodel Inc., Beijing, China) was inserted immediately and fixed by a purse-string suture on the portal vein. The time to reperfusion was about 1 min after intercepted blood flow. In addition, a catheter with trumpet-shaped opening was used to prevent the catheter from slipping out of the vessel and minimize the effect on blood flow. Another end of the catheter was passed subcutaneously to the skin close to the scapula.\nBlood samples were collected at 0, 0.083, 0.25, 0.5, 1, 2, 4, 6, 8 and 12 h. Blood (approximately 100 µl) was collected from the jugular and portal veins into tubes containing heparin on ice and centrifuged within 1 h of collection. Plasma was harvested and stored at −20°C for bioanalysis.\nFaFg was calculated using mass balance method and rat portal blood flow (Qpv) of 32 ml/min/kg, where Rb/p is used to convert plasma concentrations to blood concentrations."}}, "note": "Values joined by “and” are separate entries in the source; they are usually repeats but may differ in a detail not shown here. Identical values can stand only once. Like-named read-outs stand apart in the source and are kept apart here."}
{"smiles": "CCN(Cc1ccccn1)C(=O)Cc1c(-c2ccc(Cl)c(Cl)c2)nc2cc(C)ccn12", "note": "[YL-IPA08]", "values": [{"measurement": "unbound concentration in the incubates / in vitro TSPO-binding activity", "setting": "TSPO", "value": 4.9, "unit": "pg/mL"}, {"measurement": "Clint normalized by CYP content", "setting": "[1]", "value": "3.47 ± 0.04", "unit": "ml/min/nmol CYP protein"}, {"measurement": "microsomal CLint at 1 μM", "setting": "in vitro [2]", "value": "200 ± 30", "unit": "µL/min/mg"}, {"measurement": "antidepressant-like effect", "setting": "forced swim rats; forced swim rats, 1, 3, and 10 mg/kg", "value": "marked acute antidepressant-like effects"}, {"measurement": "antidepressant-like and anxiolytic-like effects", "setting": "forced swim rats; series of rat behavior models, 1–10 mg/kg oral dosing", "value": "significant antidepressant-like and anxiolytic-like effects"}, {"measurement": "fraction unbound at 4 h, 1 µM", "setting": "in vitro [3]", "value": 0.001}, {"measurement": "percent of remaining", "setting": "[4]", "value": 100.00, "unit": "%"}, {"measurement": "Clint normalized by CYP content", "setting": "[5]", "value": "3.47 ± 0.04 ml/min/nmol CYP protein and 2.76 ± 0.05 ^a ml/min/nmol CYP protein"}, {"measurement": "K m", "setting": "[6]", "value": "1 to 3", "unit": "µM"}, {"measurement": "predicted therapeutic human plasma concentration", "setting": "[7]", "value": "~27.2", "unit": "ng/mL"}, {"measurement": "aqueous solubility (in words)", "setting": "[8]", "value": "high aqueous solubility"}, {"measurement": "BCS class", "setting": "[8]; from high aqueous solubility and high permeability", "value": "BCS class I"}, {"measurement": "Concentration, Cbuffer chamber", "setting": "in vitro [9]; 4 h, 1 µM", "value": "168.00 ± 5.66", "unit": "nM"}, {"measurement": "Concentration, Cplasma/microsome chamber", "setting": "in vitro [9]; 4 h, 1 µM", "value": "393.00 ± 18.03", "unit": "nM"}, {"measurement": "Protein biding (%)", "setting": "in vitro [9]; 4 h, 1 µM", "value": "57.14 ± 2.92", "unit": "%"}, {"measurement": "fraction unbound at 4 h, 1 µM", "setting": "in vitro [9]; microsomes", "value": 0.428}, {"measurement": "blood plasma ratio at 1 h, 1 µM", "setting": "[10]", "value": "1.12 ± 0.08"}, {"measurement": "Plasma concentration", "setting": "[11]; 0.5 h", "value": "111.40 ± 22.00", "unit": "ng/mL"}, {"measurement": "Plasma concentration", "setting": "[11]; 1 h", "value": "101.93 ± 40.76", "unit": "ng/mL"}, {"measurement": "Plasma concentration", "setting": "[11]; 2 h", "value": "91.33 ± 38.19", "unit": "ng/mL"}, {"measurement": "Plasma concentration", "setting": "[11]; 4 h", "value": "41.78 ± 20.79", "unit": "ng/mL"}, {"measurement": "Plasma concentration", "setting": "[11]; 6 h", "value": "12.85 ± 4.33", "unit": "ng/mL"}, {"measurement": "Plasma concentration", "setting": "[11]; 8 h", "value": "5.62 ± 1.64", "unit": "ng/mL"}, {"measurement": "Plasma concentration", "setting": "[11]; 12 h", "value": "1.98 ± 0.88", "unit": "ng/mL"}, {"measurement": "F a F g", "setting": "[11]; Sprague-Dawley (SD)", "value": 22, "unit": "%"}]}
